# “Also recorded” adds a separate entry of the source.
# Legend:
# B16-F10 tumor = B16-F10 tumor bearing C57BL/6 mice; format: in vivo; details: topical daily
# Protocol: Comparison of the efficacy of free drug and T-CAR (day 14). One day after tumor inoculation (two tumors per mouse, mice received free drug or T-CAR daily.
# One day after tumor inoculation (one per mouse), mice received free drug or T-CAR daily, 200 μg RMP1-14 twice a week, or combination.
# A: group 1, control; B: group 4, T-CAR+RMP1-14. Tumor collected at day 20 after inoculation.
# Tumor collected at day 20 after inoculation.
# The carvedilol loaded transfersome, T-CAR, was evaluated in vitro and in vivo on melanoma growth. […] To examine the in vivo activity of T-CAR, in C57BL/6 mice bearing the B16-F10 tumor, the T-CAR gel as a topical monotherapy was examined. The efficacy of T-CAR was compared with free drug dissolved in acetone in male mice bearing B16-F10 (two tumors inoculated in each mouse). […] Second study examined efficacy of topical T-CAR combined with anti-PD-1 (RMP1-14, 200 μg per mouse, i.p. twice per week) (one tumor was inoculated in each mouse).
# [1] = tested on: UV-induced immunosuppression; assay: UV-induced suppression of contact hypersensitivity (CHS) to DNFB; format: in vivo, SKH-1 hairless mice; details: single dose i.p. 2 h before UV 224 mJ/cm^2; carvedilol 1 and 10 mg/kg, R-carvedilol 10 mg/kg
# Protocol: Mice were treated with NS398, CAR or R-CAR (L: 1 mg/kg; H: 10 mg/kg) i.p. 2 hr before UV exposure (224 mJ/cm^2). 24 h after, mice were sensitized with DNFB on back. After 7 days, the right ears were challenged with DNFB. 24 h after, 5 mm punch biopsies were obtained from both ears and weighed. The data are the mean±SE difference in ear biopsy weights (right-left) from n=5 mice (male). *: P<0.05; **: P<0.01.
# The data listed are the mean±SE difference in ear biopsy weights (Right-Left) from n=5 mice (male). *: P<0.05; **:P<0.01.
# Immunosuppression induced by UV radiation is commonly investigated using the contact hypersensitivity (CHS) response to contact allergens such as the hapten dinitrofluorobenzene (DNFB). […] Thus, carvedilol's skin cancer preventive activity may be partly attributed to its inhibitory effects on UV-induced immunosuppression.
# The mice were pretreated with single dose of R-carvedilol (10 mg/kg, i.p.) two hours before UV radiation, and were subject to UV exposure. […] Thus, R-carvedilol, although not a β-blocker, similarly reverses UV-induced immunosuppression.
# CHS assay was used to evaluate the effects of a topical delivery system of carvedilol developed by us, named “T-CAR”, on UV-induced immunosuppression. […]
# JB6 [2] = details: among 16 β-blockers examined (Cleveland K H, 2019); cited from earlier work
# B(a)P-induced lung tumor = assay: Long term B(a)P-induced lung carcinogenesis in A/J mice; format: in vivo; details: for tumor incidence: B(a)P only 100%
# Protocol: To examine the chemopreventive efficacy of carvedilol, we used an established lung carcinogenesis model in A/J mice induced by B(a)P. Two drug doses were examined: 20 mg/kg (H) and 3.2 mg/kg (L). The mice were randomly divided by body weight into seven groups at the beginning of the experiments. To induce lung tumor, mice were given a single intraperitoneal (i.p.) injection of B(a)P at 100 mg/kg body weight in 0.2 ml tricaprylin. The following are treatment groups: (1) vehicle control, n=8; (2) B(a)P only, n=9; (3) B(a)P+gefitinib 400 mg/kg, weekly oral gavage, positive control, n=10; (4) B(a)P+carvedilol 20 mg/kg drinking water, n=9; (5) B(a)P+carvedilol 3.2 mg/kg drinking water, n=8; (6) B(a)P+R-carvedilol 20 mg/kg drinking water, n=9; (7) B(a)P+R-carvedilol 3.2 mg/kg drinking water, n=10. The mice began the drug treatments 3 weeks before B(a)P treatment and terminated at 23 weeks after B(a)P treatment. […] Tumor multiplicity was determined by counting surface tumors in fixed lung under a dissecting microscope. […] The tumor incidence for gefitinib group was 70%. The tumor incidence was 89% and 50% for high and low dose carvedilol, respectively. The tumor incidence was 67% and 70% for high and low dose R-carvedilol, respectively.
# [3] = Systolic blood pressure of mice, noninvasive tail-cuff system; format: in vivo; details: 32 mg/kg/day
# Protocol: SKH-1 mice were given racemic carvedilol or R-carvedilol in drinking water for two weeks (32 mg/kg/day). Blood pressure was examined in mice utilizing a Kent CODATM noninvasive tail-cuff system.
# [4] = tested on: B(a)P-induced lung toxicity; assay: Short term single dose B(a)P-induced lung toxicity in mice; format: in vivo, CD1/IGS mice; details: for plasma LDH levels / plasma MDA levels (LPO): B(a)P 125 mg/kg on day 7; for protection against B(a)P-induced histological changes and COX-2 expression: oral, compared with racemic carvedilol
# Description: Chronic exposure to carcinogens that are present in tobacco smoking or air pollution is a well-known cause of lung cancer. One of the most important strategies to manage lung cancer is chemoprevention, which uses synthetic or natural products to block or reverse lung cancer initiation, promotion, and progression. Benzo(a)pyrene (B(a)P), a polycyclic aromatic hydrocarbon, is a pro-carcinogen ubiquitously present as pollutants in the environment. It is mostly produced during cigarette smoking and is present in automobile exhausts, and causes lung toxicity and lung cancer after metabolic activation. A single dose B(a)P-induced lung toxicity study in mice was used to evaluate the protective effects of carvedilol. In male CD1/IGS mice, carvedilol was orally administered (20 mg/kg body weight) once a day for 7 days. The mice were then treated with a single dose B(a)P via oral gavage (125 mg/kg body weight) on day 7, 30 min after the drug treatment. Mice were sacrificed 24 hours after B(a)P treatment. As expected, B(a)P increased the plasma levels of lactate dehydrogenase (LDH) and Malondialdehyde (MDA) for lipid peroxides (LPO).
# [5] = tested on: UV induced skin carcinogenesis; assay: Chronic UV induced skin carcinogenesis model; format: in vivo, mice; details: for delay in tumor formation compared to UV only controls: topical, chronic UV
# [6] = Ex vivo permeation across rat skin, Franz diffusion cells; format: in vitro ADME; details: for permeation: rat, 200 μg/mL
# Protocol: Instead of nanoparticle-based topical delivery, the present inventors have explored other methods of skin delivery of drugs. They investigated the effects of natural penetration enhancers on the ex vivo permeation of carvedilol across rat skin. […] The drug formulations containing carvedilol or R-carvedilol (200 μg/mL) (1 mL) was loaded on Franz diffusion cells using excised rat dorsal skin (with hair removed). […] D-limonene is isolated from orange peel, and is a cheap and safe option to delivery carvedilol (same for R-carvedilol) for skin cancer prevention. D-limonene is present in many skin commercial products such as perfumes and essential oils. Therefore, this invention provides another novel approach of making skin targeting formulation for both carvedilol and R-carvedilol. This approach of making skin formulation is not only safe but also easier to scale up to industry level for making large amount.
# [7] = orally administered; cited from earlier work
# 4T1 = assay: Triple negative breast tumor 4T1 in BalB/C mice; format: in vivo; details: for tumor growth: 20 mg/kg/day in drinking water from two weeks before inoculation, monotherapy; for efficacy in combination with anti-PD-1 therapy: same 4T1 model, combined with anti-PD-1
# Protocol: To investigate the effect of carvedilol and R-carvedilol on breast cancer growth, the BalB/C mice were treated with the drugs (20 mg/kg/day) in drinking water for two weeks before the mice were inoculated with murine triple negative breast tumor 4T1 in the fourth left mammary fat pad. […] The same experimental model was treated with carvedilol or R-carvedilol, in combination with the anti-PD-1 therapy.
# JB6 [8] = assay: EGF-induced JB6 transformation; format: cell-based, mouse
# [9] = tested on: UV induced skin damage and inflammation; assay: Acute UV induced skin damage and inflammation model; format: in vivo, mouse; details: topical 0.1, 1 or 10 μM in acetone immediately after single UV 300 mJ/cm^2
# Protocol: In an acute UV induced skin damage and inflammation model induced with a single dose of UV (300 mJ/cm^2), topical treatment with R-carvedilol (0.1, 1 or 10 μM in acetone as a vehicle), applied immediately after the UV, attenuated mouse skin edema and reduced epidermal thickening, Ki-67 staining, COX-2 protein, IL-6 and IL-10 mRNA levels.
# [10] = In vitro penetration and skin retention, Franz diffusion cells and porcine ear skin; format: in vitro ADME; details: Franz diffusion cells, porcine ear skin; free drug in water or PEG 400
# Description: Thus, topical route has been investigated as a major approach in the application of R-carvedilol for clinical skin cancer prevention. In order to prepare for clinical studies, we prepared three types of transfersome-based formulation for R-carvedilol using different amount of phospholipid (soy phosphatidylcholine, SPC) or edge activator (tween-80). The particle sizes, zeta potential, encapsulation efficiency and stability for these transfersomes were very similar to those of T-CAR. […] This confirms that nano-transfersomes provide a promising delivery system for both carvedilol and R-carvedilol. Thus, this selected transfersomal formulation for R-carvedilol, named “T-RCAR”, will be further characterized in preclinical model systems and examined in clinical trials in the future.
# [11] = oral 1.6 mg/kg, mice; cited from earlier work
# [12] = Plasma concentration in mice given drug in drinking water; format: in vivo; details: 178 μg/mL in drinking water (32 mg/kg/day), 2 weeks, 95% CI in brackets
# [13] = R-carvedilol alone, healthy human volunteers; cited from earlier work
# [14] = high dose 20 mg/kg drinking water
# [15] = low dose 3.2 mg/kg drinking water
# [16] = oral 20 mg/kg once a day for 7 days
compound,measurement,setting,value
COc1ccccc1OCCNCC(O)COc1cccc2[nH]c3ccccc3c12 (racemic) [carvedilol],tumor inhibition (total tumor volume),"B16-F10 tumor; 10 μM, day 14, two tumors per mouse, male mice",trend of tumor inhibition
same,tumor inhibition (total tumor volume),"B16-F10 tumor; free drug in acetone 100 μM (CAR H), day 14",less effective
same,UV-induced CHS suppression,[1],reversed UV-induced suppression of CHS
same,potency in preventing EGF-induced neoplastic transformation of mouse epidermal cells,JB6 [2],highest potency
same,tumor incidence,B(a)P-induced lung tumor; [14],89%
same,tumor incidence,B(a)P-induced lung tumor; [15],50%
same,tumor multiplicity,B(a)P-induced lung tumor; lower dose 3.2 mg/kg drinking water,significantly attenuated
same,mean systolic blood pressure,"[3]; mouse, in vivo",statistically reduced mean systolic blood pressure
same,B(a)P-induced expression of COX-2 in lung (IHC),[4]; [16],attenuated
same,plasma LDH levels,[4]; [16],significantly attenuated
same,plasma MDA levels (LPO),[4]; [16],significantly attenuated
same,B(a)P-induced lung morphological changes (histology),"[4]; oral 20 mg/kg once a day for 7 days, H&E",reduction in these morphological changes
same,delay in tumor formation compared to UV only controls,[5],3 week
same,permeation,[6],1.6 ± 0.25 µg
same,permeation,[6]; pH 7.4,0.430 /−0.07 μg
same,bioavailability,[7],24%
same,tumor growth,4T1,significantly reduced
same,efficacy in combination with anti-PD-1 therapy,4T1,enhanced the efficacy of anti-PD-1 monotherapy
COc1ccccc1OCCNC[C@H](O)COc1cccc2[nH]c3ccccc3c12 [S-carvedilol],inhibitory effects on EGF-induced JB6 transformation,JB6 [8],nearly identical inhibitory effects
same,plasma LDH levels,[4]; [16],significantly attenuated
same,plasma MDA levels (LPO),[4]; [16],significantly attenuated
same,protection against B(a)P-induced histological changes and COX-2 expression,[4],same degree of protection as the racemic carvedilol
COc1cc2ncnc(Nc3ccc(F)c(Cl)c3)c2cc1OCCCN1CCOCC1 [gefitinib],tumor incidence,"B(a)P-induced lung tumor; 400 mg/kg weekly oral gavage, positive control",70%
COc1ccccc1OCCNC[C@@H](O)COc1cccc2[nH]c3ccccc3c12 [R-carvedilol],COX-2 protein,[9],reduced
same,IL-6 mRNA levels,[9],reduced
same,IL-10 mRNA levels,[9],reduced
same,Ki-67 staining,[9],reduced
same,epidermal thickening,[9],reduced
same,mouse skin edema,[9],attenuated
same,skin permeation,[10],very little
same,skin retention,[10],very little
same,heart rate or blood pressure,[11],did not alter heart rate or blood pressure
same,UV-induced CHS suppression,[1],reversed UV-induced suppression of CHS; also recorded: significantly reversed UV-induced CHS suppression
same,inhibitory effects on EGF-induced JB6 transformation,JB6 [8],nearly identical inhibitory effects
same,tumor inhibition,B(a)P-induced lung tumor; 20 and 3.2 mg/kg drinking water,same trend of tumor inhibition as carvedilol
same,tumor incidence,B(a)P-induced lung tumor; [14],67%
same,tumor incidence,B(a)P-induced lung tumor; [15],70%
same,mean plasma concentration,[12],25.13 ng/mL
same,mean systolic blood pressure,"[3]; drinking water, 2 weeks, male SKH-1 mice",did not alter blood pressure
same,plasma LDH levels,[4]; [16],significantly attenuated
same,plasma MDA levels (LPO),[4]; [16],significantly attenuated
same,protection against B(a)P-induced histological changes and COX-2 expression,[4],same degree of protection as the racemic carvedilol
same,adverse effects,[13],without major adverse effects
same,skin tumor development,[5]; topical 10 μM in acetone 30 min before UV,strongly inhibited skin tumor development
same,delay in tumor formation compared to UV only controls,[5],5 week
same,skin permeation,[6]; control formulation: PBS pH 7.4 with 40% v/v PEG 400,minimal
same,tumor growth,4T1,significantly reduced
same,efficacy in combination with anti-PD-1 therapy,4T1,enhanced the efficacy of anti-PD-1 monotherapy

# From US20220273617A1, “ANTI-CANCER, ANTI-INFLAMMATORY AND IMMUNOMODULATORY ACTIVITY OF R-CARVEDILOL AND METHODS OF USE” (priority 2021, published 2022)
